# Source: paper PMC2882596 (Journal of the American Chemical Society, 2010)
# Key:
# [1] = tested on: Staph aureus strains; assay: Antibiotic potency of wild type thiocillin variants; type: cell-based, Staphylococcus aureus; conditions: wild type scaffold variants, equivalent potency
# [2] = tested on: Bacillus subtilus 168; assay: MIC, serial dilution liquid culture, overnight in 96-well plates; type: cell-based, Bacillus subtilis; conditions: wild type scaffold variants, equivalent potency
substance,measurement,setting,value
Micrococcin P1,antibiotic potency against Staph aureus strains,[1],submicromolar
same,antibiotic potency against B subtilis,[2],submicromolar
YM-266183,antibiotic potency against Staph aureus strains,[1],submicromolar
same,antibiotic potency against B subtilis,[2],submicromolar
Micrococcin P2,antibiotic potency against Staph aureus strains,[1],submicromolar
same,antibiotic potency against B subtilis,[2],submicromolar
Thiocillin I,antibiotic potency against Staph aureus strains,[1],submicromolar
same,antibiotic potency against B subtilis,[2],submicromolar
